Calls of active or inactive are those of the source. The rule behind the calls is not given here.
How the values were obtained:
[1] = biological target: Heat shock protein HSP 90-alpha (Homo sapiens, UniProt P07900); experiment: Binding affinity HSP90alpha (unknown origin) incubated for 24 hrs by fluorescence polarization assay
[2] = biological target: T1, Heat shock protein 75 kDa, mitochondrial (Homo sapiens, UniProt Q12931); experiment: Binding affinity to Trap1 (unknown origin) incubated for 24 hrs by fluorescence polarization assay
T1 sequence (Q12931 whole entry): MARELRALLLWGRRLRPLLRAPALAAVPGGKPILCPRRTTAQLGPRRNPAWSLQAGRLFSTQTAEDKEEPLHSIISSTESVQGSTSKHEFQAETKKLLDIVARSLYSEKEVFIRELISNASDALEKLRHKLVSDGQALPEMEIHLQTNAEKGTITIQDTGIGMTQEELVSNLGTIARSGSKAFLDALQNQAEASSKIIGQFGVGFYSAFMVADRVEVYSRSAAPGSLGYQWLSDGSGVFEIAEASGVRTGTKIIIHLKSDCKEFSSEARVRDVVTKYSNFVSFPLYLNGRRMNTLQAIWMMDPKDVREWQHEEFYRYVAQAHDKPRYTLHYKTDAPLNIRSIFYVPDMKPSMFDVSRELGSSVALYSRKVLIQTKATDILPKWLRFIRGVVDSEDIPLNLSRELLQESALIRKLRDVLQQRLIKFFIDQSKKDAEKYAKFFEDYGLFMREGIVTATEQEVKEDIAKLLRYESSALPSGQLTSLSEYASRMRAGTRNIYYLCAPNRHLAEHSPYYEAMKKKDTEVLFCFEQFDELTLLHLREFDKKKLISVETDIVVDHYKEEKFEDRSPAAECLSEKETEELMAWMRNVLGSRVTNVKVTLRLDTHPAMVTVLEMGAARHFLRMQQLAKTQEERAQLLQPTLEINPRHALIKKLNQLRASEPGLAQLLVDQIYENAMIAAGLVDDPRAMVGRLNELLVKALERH

Endoplasmin = Endoplasmin (Homo sapiens, UniProt P14625); experiment: Binding affinity to Grp94 (unknown origin) incubated for 24 hrs by fluorescence polarization assay
Chain of Endoplasmin (P14625 whole entry): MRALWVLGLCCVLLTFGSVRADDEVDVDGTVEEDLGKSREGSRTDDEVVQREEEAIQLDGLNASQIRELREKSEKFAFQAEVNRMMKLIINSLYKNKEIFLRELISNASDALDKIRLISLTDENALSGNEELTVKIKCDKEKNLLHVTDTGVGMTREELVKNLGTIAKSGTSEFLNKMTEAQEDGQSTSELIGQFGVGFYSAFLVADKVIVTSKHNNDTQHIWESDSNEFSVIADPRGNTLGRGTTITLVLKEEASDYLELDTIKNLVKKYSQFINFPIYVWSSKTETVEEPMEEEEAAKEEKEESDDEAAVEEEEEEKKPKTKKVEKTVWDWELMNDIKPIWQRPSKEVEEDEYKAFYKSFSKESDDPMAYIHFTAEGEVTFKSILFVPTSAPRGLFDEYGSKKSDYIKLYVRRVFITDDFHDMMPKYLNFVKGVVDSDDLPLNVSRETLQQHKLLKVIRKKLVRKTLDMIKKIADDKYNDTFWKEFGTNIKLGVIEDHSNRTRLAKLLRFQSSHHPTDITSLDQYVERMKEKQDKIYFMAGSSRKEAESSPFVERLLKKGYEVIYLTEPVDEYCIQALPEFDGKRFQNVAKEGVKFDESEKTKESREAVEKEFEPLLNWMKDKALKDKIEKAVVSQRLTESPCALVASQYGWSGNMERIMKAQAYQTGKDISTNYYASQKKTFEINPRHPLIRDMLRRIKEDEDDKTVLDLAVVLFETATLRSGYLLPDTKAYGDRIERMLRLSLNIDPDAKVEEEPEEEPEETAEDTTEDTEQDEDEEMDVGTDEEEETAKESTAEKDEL

OVCAR-8 [3] = experiment: Antiproliferative activity against human OVCAR-8 cells assessed as inhibition of cell growth incubated for 72 hrs by MTS assay; assay type: functional, cell-based; settings: OVCAR-8, 72 h
[4] = biological target: Heat shock protein HSP 90-beta (Homo sapiens, UniProt P08238); experiment: Binding affinity HSP90beta (unknown origin) incubated for 24 hrs by fluorescence polarization assay
Chain of Heat shock protein HSP 90-beta (P08238 whole entry): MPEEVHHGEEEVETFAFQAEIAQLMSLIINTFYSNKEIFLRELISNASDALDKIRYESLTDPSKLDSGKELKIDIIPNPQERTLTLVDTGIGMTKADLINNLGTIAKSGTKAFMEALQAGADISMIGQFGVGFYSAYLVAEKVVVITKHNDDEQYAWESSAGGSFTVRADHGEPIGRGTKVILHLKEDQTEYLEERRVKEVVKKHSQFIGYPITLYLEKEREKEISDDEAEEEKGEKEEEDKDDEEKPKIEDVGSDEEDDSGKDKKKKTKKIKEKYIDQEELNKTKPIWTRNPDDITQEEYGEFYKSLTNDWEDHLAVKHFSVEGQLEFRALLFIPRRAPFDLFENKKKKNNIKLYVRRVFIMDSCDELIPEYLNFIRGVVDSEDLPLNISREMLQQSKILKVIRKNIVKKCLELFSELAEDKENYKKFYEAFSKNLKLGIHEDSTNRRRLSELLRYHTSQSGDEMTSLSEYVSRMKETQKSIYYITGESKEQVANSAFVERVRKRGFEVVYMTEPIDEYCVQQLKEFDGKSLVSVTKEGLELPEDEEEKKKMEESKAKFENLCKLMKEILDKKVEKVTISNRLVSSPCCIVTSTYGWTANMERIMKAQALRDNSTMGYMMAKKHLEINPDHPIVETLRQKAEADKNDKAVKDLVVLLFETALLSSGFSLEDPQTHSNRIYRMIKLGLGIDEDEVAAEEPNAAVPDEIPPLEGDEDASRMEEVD

[5] = Antiproliferative activity against human MCF-10A cells assessed as inhibition of cell growth incubated for 72 hrs by MTS assay; assay type: toxicity, cell-based
[6] = Effective permeability of compound in PBS buffer at pH 7.4 incubated for 5 hrs by PAMPA assay; assay type: ADME; settings: read-out: Peff
[7] = Selectivity index, ratio of IC50 for binding affinity to HSP90beta (unknown origin) to IC50 for binding affinity to HSP90alpha (unknown origin)
OVCAR-8 [8] = experiment: Induction of heat shock response in human OVCAR-8 cells assessed as increase in HSP90 level at 1 to 100 uM incubated for 24 hrs by Western blot analysis; assay type: functional, cell-based; settings: dose 1-100 µM
[9] = biological target: RAC-alpha serine/threonine-protein kinase (Homo sapiens) (UniProt P31749); experiment: Induction of AKT degradation in human OVCAR-8 cells incubated for 24 hrs by Western blot analysis; assay type: cell-based; settings: dose 1-100 µM
Chain of RAC-alpha serine/threonine-protein kinase (Homo sapiens) (P31749 whole entry): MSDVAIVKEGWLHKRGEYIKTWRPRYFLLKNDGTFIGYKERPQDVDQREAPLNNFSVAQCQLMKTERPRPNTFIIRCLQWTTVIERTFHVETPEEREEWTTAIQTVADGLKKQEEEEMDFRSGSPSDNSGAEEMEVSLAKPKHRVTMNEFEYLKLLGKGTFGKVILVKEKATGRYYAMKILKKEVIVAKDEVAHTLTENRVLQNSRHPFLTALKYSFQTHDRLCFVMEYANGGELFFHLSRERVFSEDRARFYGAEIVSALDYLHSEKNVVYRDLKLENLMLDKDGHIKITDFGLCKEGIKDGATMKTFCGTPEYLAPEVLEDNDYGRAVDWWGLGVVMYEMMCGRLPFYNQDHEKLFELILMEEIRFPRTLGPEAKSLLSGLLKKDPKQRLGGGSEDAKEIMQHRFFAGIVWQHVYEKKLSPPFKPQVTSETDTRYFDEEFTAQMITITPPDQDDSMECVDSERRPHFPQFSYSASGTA

OVCAR-8 [10] = experiment: Induction of heat shock response in human OVCAR-8 cells assessed as increase in HSP90 level at 100 nM incubated for 24 hrs by Western blot analysis; assay type: functional, cell-based
OVCAR-8 [11] = experiment: Effect on TGFbetaR level in human OVCAR-8 cells at 1 to 100 uM incubated for 24 hrs by Western blot analysis; assay type: functional, cell-based; settings: dose 1-100 µM
[12] = biological target: RAC-alpha serine/threonine-protein kinase (Homo sapiens) (UniProt P31749); experiment: Inhibition of AKT phosphorylation in human OVCAR-8 cells assessed as reduction in pAKT level incubated for 24 hrs by Western blot analysis; assay type: cell-based; settings: dose 1-100 µM
Heat shock protein HSP90 = Heat shock protein HSP90 (Homo sapiens, UniProt P07900+P08238); experiment: Disruption of HSP90-mediated hERG channel maturation transfected in HEK293 cells assessed as appearance of fully glycosylated form at 100 uM incubated for 24 hrs by Western blot analysis; assay type: toxicity, cell-based; settings: hek293, 24 h
OVCAR-8 [13] = experiment: Effect on TLR2 level in human OVCAR-8 cells at 1 to 100 uM incubated for 24 hrs by Western blot analysis; assay type: functional, cell-based; settings: dose 1-100 µM
[14] = biological target: RAC-alpha serine/threonine-protein kinase (Homo sapiens) (UniProt P31749); experiment: Induction of AKT degradation in human OVCAR-8 cells at 1 to 100 uM incubated for 24 hrs by Western blot analysis; assay type: cell-based; settings: dose 1-100 µM
OVCAR-8 [15] = experiment: Effect on HER2 level in human OVCAR-8 cells at 1 to 100 uM incubated for 24 hrs by Western blot analysis; assay type: functional, cell-based; settings: dose 1-100 µM

IC50 [1] [nM] | IC50 [4] [µM] | Ratio IC50 [7] | SMILES | Papp at 5 h [6] [×10⁻⁶ cm/s] | further results
90300 | > 100 |  | Cc1ccc(Sc2cc(C(=O)N3Cc4ccc(OCCCC[N+](C)(C)[O-])cc4C3)ccc2O)cc1C |  | 
 |  |  | Cn1c(=O)c2c(ncn2C)n(C)c1=O [CAFFEINE] | 17.3 | 
43100 | > 100 | > 2 | Cc1ccc(Sc2cc(C(=O)N3Cc4ccc(OCCC[N+](C)(C)[O-])cc4C3)ccc2O)cc1C |  | 
960 | > 100 | > 104 | Cc1ccc(Sc2cc(C(=O)N3Cc4ccc(OCC[N+](C)(C)Cc5ccccc5)cc4C3)ccc2O)cc1C |  | 
 |  |  | CCNC(=O)c1noc(-c2cc(C(C)C)c(O)cc2O)c1-c1ccc(CN2CCOCC2)cc1 |  | Activity (OVCAR-8 [10]): Active
360 | 8.39 | > 12 | CC[N+](C)(C)CCOc1ccc2c(c1)CN(C(=O)c1ccc(O)c(Sc3ccc(C)c(C)c3)c1)C2 |  | 
7360 | > 100 | > 13 | Cc1ccc(Sc2cc(C(=O)N3Cc4ccc(OCCCC[N+](C)(C)C)cc4C3)ccc2O)cc1C |  | 
7940 | > 100 | > 12 | CC[N+](C)(C)CCCCOc1ccc2c(c1)CN(C(=O)c1ccc(O)c(Sc3ccc(C)c(C)c3)c1)C2 |  | 
790 | > 100 | > 126 | Cc1ccc(Sc2cc(C(=O)N3Cc4ccc(OCCCCN(C)C)cc4C3)ccc2O)cc1C |  | 
> 100000 | > 100 |  | Cc1ccc(Sc2cc(C(=O)N3Cc4ccc(OCC[N+](C)(C)[O-])cc4C3)ccc2O)cc1C |  | 

SMILES | IC50 [1] [nM] | IC50 [4] [µM] | Ratio IC50 [7] | Papp at 5 h [6] [×10⁻⁶ cm/s] | further results
Cc1ccc(Sc2cc(C(=O)N3Cc4ccc(OCCN(C)C)cc4C3)ccc2O)cc1C | 850 | 96.1 |  |  | IC50 [2]: > 100 µM; IC50 (Endoplasmin): > 100 µM; IC50 (OVCAR-8 [3]): 13.5 µM; IC50 at 72 h [5]: 11.5 µM
CC[N+](C)(C)CCCOc1ccc2c(c1)CN(C(=O)c1ccc(O)c(Sc3ccc(C)c(C)c3)c1)C2.O=C([O-])C(F)(F)F | > 100000 | > 100 |  | 1.05 | 
Cc1ccc(Sc2cc(C(=O)N3Cc4ccc(OCCCN(C)C)cc4C3)ccc2O)cc1C | 510 | > 100 |  | 2.99 | Activity (OVCAR-8 [8]): Active; IC50 [2]: > 100 µM; IC50 (Endoplasmin): > 100 µM; Activity [9]: Dose-Dependent Effect; IC50 (OVCAR-8 [3]): 12.7 µM; IC50 at 72 h [5]: 11.7 µM
Cc1ccc(Sc2cc(C(=O)N3Cc4ccc(OCC[N+](C)(C)C)cc4C3)ccc2O)cc1C.O=C([O-])C(F)(F)F | 650 | > 100 |  | 0.775 | IC50 [2]: > 100 µM; IC50 (Endoplasmin): > 100 µM; IC50 (OVCAR-8 [3]): > 100 µM; IC50 at 72 h [5]: > 100 µM
Cc1ccc(Sc2cc(C(=O)N3Cc4ccc(OCCC[N+](C)(C)Cc5ccccc5)cc4C3)ccc2O)cc1C.O=C([O-])C(F)(F)F | 960 | > 100 | > 104 | 3.74 | 
Cc1ccc(Sc2cc(C(=O)N3Cc4ccc(OCCC[N+](C)(C)C)cc4C3)ccc2O)cc1C.O=C([O-])C(F)(F)F | 340 | > 100 |  | 0.644 | Activity (OVCAR-8 [8]): inactive; IC50 [2]: > 100 µM; IC50 (Endoplasmin): > 100 µM; IC50 (OVCAR-8 [3]): > 100 µM; Activity (OVCAR-8 [11]): Active; inhibition [12]: Dose-Dependent Effect; Activity (Heat shock protein HSP90): Active; Activity (OVCAR-8 [13]): Active; Activity [14]: inactive; Activity (OVCAR-8 [15]): Active; IC50 at 72 h [5]: > 100 µM
